Consider nine compounds from ChEMBL document CHEMBL1201862, “PubChem BioAssay data set” (2004).

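A five-concentration, 48-hour dose response in 96-well plates underlies each endpoint, interpolated linearly between surrounding concentrations. GI50: concentration for 50% inhibition of growth.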 The source made the active and inactive calls. Rule as the data show it: active = GI50 up to about 1.1 µM and inactive = higher.

Some test systems named below: OVCAR-5; NCI-H23; A549; UACC-257; HT-29; SR; NCI-H226; RPMI-8226; OVCAR-8; TK-10; HL-60; SF-539; HCT-116; SF-295; NCI-H522; IGROV-1; NCI/ADR-RES; MDA-N.
What all share (test): NCI tumour cell line growth inhibition, 48 h

With `N#C/C(=C\c1ccc(O)c(O)c1)C(=O)NC1CCC(CC2CCC(NC(=O)/C(C#N)=C/c3ccc(O)c(O)c3)CC2)CC1` (stereo not drawn), the GI50 in the test on OVCAR-5 is 2.08 µM (inactive); with NCI-H23 it was 1.3 µM (inactive); in the test on A549, 0.466 µM (active); in the test on UACC-257, 2.84 µM (inactive); in the test with HT-29 it was 1.32 µM (inactive); in the test on SR, 0.424 µM (active). Also, the GI50 in the test on NCI-H226 was 4.38 µM (inactive); with RPMI-8226 it was 0.693 µM (active); with OVCAR-8 it was 0.459 µM (active); in the test on TK-10, 4.02 µM (inactive); in the test on HL-60, 0.902 µM (active); with SF-539, 0.536 µM (active). The GI50 was 0.233 µM (active) in the test with HCT-116, 1.3 µM (inactive) in the test with SF-295, 0.437 µM (active) in the test on NCI-H522 and 1.71 µM (inactive) with IGROV-1.
Consider `O=C1CCC(=O)C(C(=O)CCC(=O)Nc2cccc(Cl)c2)C1` (stereo not drawn), for which the GI50 with OVCAR-5, in the test on NCI-H23, with A549, with UACC-257, in the test with HT-29 and in the test on SR was > 100 µM (inactive) each time. In addition, the GI50 in the test on NCI-H226, with RPMI-8226, in the test with OVCAR-8, in the test with TK-10, with HL-60 and in the test with SF-539 was > 100 µM (inactive) each time. Further, the GI50 in the test with HCT-116, with SF-295, with NCI-H522 and in the test with IGROV-1 was > 100 µM (inactive) in each case.
As for `C/C=C/C1=C(Cl)C(=O)[C@@H](Cl)[C@@]1(O)C(=O)OC` [(+)-CRYPTOSPORIPSIN], the GI50 was 11.2 µM (inactive) with OVCAR-5; 4.08 µM (inactive) in the test on NCI-H23; 9.86 µM (inactive) in the test with A549; 1.6 µM (inactive) in the test with UACC-257; 3.46 µM (inactive) in the test on HT-29; 1.84 µM (inactive) in the test on SR. The GI50 was 10.2 µM (inactive) in the test on NCI-H226; 2.28 µM (inactive) in the test with RPMI-8226; 2.08 µM (inactive) with OVCAR-8; 2.15 µM (inactive) in the test on NCI/ADR-RES; 3.13 µM (inactive) with TK-10; 1.7 µM (inactive) with HL-60. The GI50 was 2.19 µM (inactive) with SF-539; 2.84 µM (inactive) in the test on HCT-116; 11.2 µM (inactive) in the test on SF-295; 1.06 µM (active) with NCI-H522; 5.38 µM (inactive) in the test with IGROV-1.
Consider `Cc1ccc(S(=O)(=O)N/N=C2\C=C[C@]3(CC2)C(=O)N(C)c2ccccc23)cc1`, for which the GI50 with OVCAR-5 was > 100 µM (inactive); with NCI-H23 it was > 100 µM (inactive); in the test with A549, > 100 µM (inactive); in the test with UACC-257 it was > 100 µM (inactive); in the test on SR, > 100 µM (inactive); in the test on NCI-H226, 69 µM (inactive). In addition, the GI50 in the test with MDA-N, in the test with RPMI-8226, in the test with OVCAR-8, with NCI/ADR-RES, with HL-60 and in the test on HCT-116 was > 100 µM (inactive) throughout. In addition, the GI50 with SF-295 and in the test with IGROV-1 was > 100 µM (inactive) in each case.
In the case of `O=C1C(Cl)=C(N2CCSCC2)C(=O)c2c(O)ccc(O)c21`, the GI50 in the test with NCI-H23 was 0.273 µM (active); in the test on A549, 0.469 µM (active); in the test on UACC-257 it was 1.51 µM (inactive); in the test with HT-29, 0.366 µM (active); in the test with SR, 0.292 µM (active); with NCI-H226, 0.347 µM (active). In addition, the GI50 in the test on MDA-N was 0.33 µM (active); with RPMI-8226 it was 0.1 µM (active); in the test with NCI/ADR-RES, 0.1 µM (active); in the test on TK-10, 0.465 µM (active); in the test on HCT-116, 0.307 µM (active); with SF-295, 0.1 µM (active). Moreover, the GI50 was 0.312 µM (active) with NCI-H522 and 0.776 µM (active) in the test with IGROV-1.
On to `COC1CC(OS(=O)(=O)c2ccc([N+](=O)[O-])cc2)C(OC(=O)c2ccccc2)C(C)O1` (stereo not drawn), for which the GI50 with OVCAR-5, in the test on NCI-H23, in the test on A549, in the test with UACC-257, in the test on HT-29 and in the test with SR was > 100 µM (inactive) each time. Besides, the GI50 in the test with RPMI-8226 is > 100 µM (inactive); with OVCAR-8 it was > 100 µM (inactive); in the test with TK-10, > 100 µM (inactive); with HL-60 it was > 100 µM (inactive); in the test on SF-539 it was 54.6 µM (inactive); with HCT-116, > 100 µM (inactive). Moreover, the GI50 in the test with SF-295, with NCI-H522 and in the test with IGROV-1 was > 100 µM (inactive) each time.
Consider `O/N=C1/CCCCCC1NO` (stereo not drawn), for which the GI50 in the test with OVCAR-5 is > 100 µM (inactive); in the test on NCI-H23, > 100 µM (inactive); in the test on A549, > 100 µM (inactive); with UACC-257, > 100 µM (inactive); with HT-29, > 100 µM (inactive); in the test on SR, > 10 µM (inactive). Also, the GI50 in the test with NCI-H226, with MDA-N, with RPMI-8226, in the test on OVCAR-8, with NCI/ADR-RES and in the test on TK-10 was > 100 µM (inactive) each time. Further, the GI50 in the test on SF-539, in the test with HCT-116, in the test with SF-295 and with IGROV-1 was > 100 µM (inactive) each time.
Consider `O=C1C(=O)N(c2ccc(Cl)cc2)C(=O)/C(=N/c2cccc3c(=O)[nH][nH]c(=O)c23)C1c1nc2ccccc2o1` (stereo not drawn), for which the GI50 with OVCAR-5, with NCI-H23, with A549, in the test on UACC-257, in the test with HT-29 and in the test with SR was > 100 µM (inactive) in each case. The GI50 in the test on NCI-H226, in the test on RPMI-8226, in the test on OVCAR-8, in the test with TK-10, in the test with HL-60 and with SF-539 was > 100 µM (inactive) throughout. The GI50 in the test on HCT-116, in the test on SF-295 and in the test on IGROV-1 was > 100 µM (inactive) in each case.
As for `CN(C)c1ccc(C2CC(=O)CC(c3ccc(N(C)C)cc3)C23C(=O)NC(=S)NC3=O)cc1` (stereo not drawn), the GI50 in the test on OVCAR-5 was > 100 µM (inactive); with NCI-H23 it was 91.2 µM (inactive); in the test with A549, > 100 µM (inactive); in the test with UACC-257, > 100 µM (inactive); in the test on HT-29, > 100 µM (inactive); in the test with SR, > 100 µM (inactive). In addition, the GI50 with NCI-H226, in the test with MDA-N, in the test on RPMI-8226, with NCI/ADR-RES, with TK-10 and in the test with HL-60 was > 100 µM (inactive) in each case. Further, the figures for the GI50 in the test on SF-539, in the test on HCT-116 and in the test on SF-295 were > 100 µM (inactive), > 100 µM (inactive) and 57.9 µM (inactive), respectively.
